According to patent US9012470B2 (Dart NeuroScience (Cayman) Ltd., priority 2010, dated 2015):
Counter-ions that a name gives are not always drawn.

What was measured:
[1] = system: benzodiazepine site of GABAA; test: Binding assay, benzodiazepine site of GABAA (binding assay 1: rat brain, (3H)-flunitrazepam; binding assay 2: bovine hippocampal membranes, [3H]-RY80); conditions: radioligand binding; for % Inhibition at 0.1 μM: 0.1 μM test compound; for % Inhibition at 10 μM: 10 μM test compound
Experimental: The ability of a compound disclosed herein to act as ligand to the benzodiazepine site of GABAA can be determined using pharmacological models which are well known in the art using the following assay.
Binding assay 1: Whole brain (except cerebellum) of male Wistar derived rats weighing 175±25 g were used to prepare GABAA central benzodiazepine receptor in Na—K phosphate buffer pH 7.4. A 5 mg aliquot was incubated with 1 nM (^3H)-flunitrazepam for 60 minutes at 25° C. Experiments were performed in the presence or absence of 30 μM of GABA. Non-specific binding was estimated in the presence of 10 μM of diazepam. Membranes were filtered and washed, the filters were then counted to determine (^3H)-flunitrazepam specifically bound. Test compounds were tested in duplicate according to the required concentrations (Damm, H. W., et al. (1978) Res. Comm. Chem. Pathol. Pharmacol. 22: 597-560 incorporated herein in its entirety; Speth, R. C., et al. (1979) Life Sci. 24: 351-357 incorporated herein in its entirety).
Receptor Source: Bovine hippocampal membranes
Radioligand: [3H]-RY80 (40-80 Ci/mmol)
Final ligand concentration—[0.8 nM]
Non-specific Determinant: L-655,708—[0.5 μM]
Binding assay 2 followed procedures based on Li and Szabo (Li M., Szabo A., Rosenberg H. Evaluation of native GABAA receptors containing an α5 subunit. Eur. J. Pharmacol. 413: 63-72 (2001)). Incubation Conditions: Reactions are carried out in 50 mM Tris-Citrate (pH 7.8) containing 200 mM NaCl at 0-4° C. for 60 minutes. The reaction is terminated by rapid vacuum filtration onto glass fiber filters. Radioactivity trapped onto the filters is determined and compared to control values in order to ascertain any interactions of test compound with the benzodiazepine (central) binding site.

GABAA receptors = test: Electrophysiology assay, two-electrode voltage clamp in Xenopus oocytes expressing GABAA receptors; assay type: cell-based; conditions: GABA EC10, screening concentration of 10 μM, subunit combination not stated
Experimental: mRNA was prepared from lyophilized plasmid pellets containing cDNA inserts encoding the specific GABAA receptor subunit. cDNAs encoding the α2, α3, and γ3 subunits were subcloned into pBluescript, SK^−. cDNAs encoding the α1 and α5 subunits were subcloned into prC while cDNA encoding the β2 subunit was subcloned into pcDNA1. The cDNA construct encoding the γ2s subunit is in the pGH19 expression construct. Overnight cultures of transformed DH5a bacterial cells were performed to grow sufficient quantities for maxiprep isolation of the plasmid cDNA. The resulting plasmid cDNA was linearized by digestion with an appropriate restriction enzyme that cleaves distal to the cDNA insert (XbaI for α1,2, β2, and γ3 or NotI for α3,5 and γ2, respectively). Following digestion, plasmid cDNA was treated with proteinase K and extracted with phenol/chloroform/isoamyl alcohol, followed by ethanol precipitation. cDNA quality was assessed by agarose-gel electrophoresis (1.5% agarose gel). Samples were stored at −20° C. until use. In vitro transcription was performed with T7 RNA polymerase. mRNA was then stored at −80° C. until use. Plasmids were linearized with appropriate restriction enzymes before in vitro transcription using the Message Machine kit (Ambion, Austin, Tex.).
GABAA Receptor Expression in Xenopus oocytes.
GABAA receptor expression in Xenopus oocytes: Following 45 min of 0.15% Tricaine anesthesia, an ovarian section containing the follicular oocytes was removed from the frog through a lateral abdominal incision. Oocytes were immediately placed in a calcium-free solution (NaCl 96 mM, MgCl2 1 mM, KCl 2 mM, Hepes 50 mM, pyruvate 2.5 mM, gentamycin 100 μg/mL, penicillin-streptomycin 50 U/mL, pH 7.4). Following 1.5-2 hour incubation in 0.2% collagenase (type II, Sigma Chemical Co., St. Louis, Mo.) at room temperature, individual Dumont stage V and VI oocytes were transferred to an incubator and maintained overnight in Barth's solution (NaCl 84 mM, NaHCO3 2.4 mM, MgSO4 0.82 mM, KCl 1 mM, Ca(NO3)2 0.33 mM, CaCl2 0.41 mM, Tris/HCl 7.5 mM, pyruvate 2.5 mM, gentamycin 50 μg/mL, penicillin-streptomycin, 100 units/mL, pH 7.4) at 18-20° C. and used for experiments 1-5 days post-injection. Oocytes were injected solution using an electronic microinjector (Drummond, Broomall, Pa.) with 50 nL of RNA containing 0.3-0.5 ng of each subunit RNA in a 1:1:1 ratio. The injected oocytes were used for experiments after 1-5 days of incubation in Barth's solution at 18-20° C.
Measurements of ion currents from oocytes expressing GABAA receptors were performed using a Warner two-electrode voltage-clamp amplifier (Warner Instruments, Inc., Foster City, Calif.) (Park-Chung, M., et al. (1999) Brain Res. 830: 72-87 incorporated herein in its entirety). Microelectrodes were fabricated from borosilicate glass capillaries with a programmed pipette puller (Sutter Instrument Co., Calif.). Microelectrode resistance was 1-3 MΩ when filled with 3 M KCl. The oocyte recording chamber was continuously perfused with Ringer solution. Oocytes were clamped at a holding potential of −70 mV during data acquisition. The membrane current was filtered at 10 Hz and sampled at 100 Hz. Compounds were applied by a gravity-driven external perfusion system. The working volume of the recording chamber was 30 μL and the rate of the perfusion was approximately 50 μL/sec. Compound application was 10-20 sec followed by a 90 sec wash. Data acquisition and external perfusion was computer controlled by custom-developed software. All experiments were performed at room temperature (22-24° C.). Dose-response data from each oocyte were fitted to the Hill equation by non-linear regression using the equation: IGABA=Emax/(1+(EC50/c)^n^H)
Emax is the maximum response, EC50 is the concentration producing 50% of the maximal response, nH is the Hill coefficient and c is the concentration of agonist. […]

% Inhibition at 10 μM [1] | Compound | % Inhibition at 0.1 μM [1] | EP Modulation (GABAA receptors)
A (A indicates % inhibition >80%) | CCCNC(=O)n1cc2[nH]cc3c(=O)n(-c4ccccc4)nc-3c2c1 [Compound 13c, 3-Oxo-2-phenyl-N-propyl-2,3-dihydropyrazolo[3,4-d]pyrrolo[3,4-b]pyridine-7(5H)-carboxamide] | A (A indicates % inhibition >80%) | D (D indicates negative modulation >20%)
C (C indicates % inhibition <20%) | CCNC(=O)n1cc2[nH]cc3c(=O)n(-c4ccccc4)nc-3c2n1 [Compound 21a] | B (B indicates % inhibition <80% and >20%) | D (D indicates negative modulation >20%)
A (A indicates % inhibition >80%) | O=C(NCC(F)(F)F)n1ncc2c3nn(-c4ccccc4)c(=O)c-3c[nH]c21 [Compound 7b, 3-oxo-2-phenyl-N-(2,2,2-trifluoroethyl)-2,3-dihydrodipyrazolo[3,4-b:3′,4′-d]pyridine-6(5H)-carboxamide] | B (B indicates % inhibition <80% and >20%) | D (D indicates negative modulation >20%)
A (A indicates % inhibition >80%) | CCNC(=O)n1cc2[nH]cc3c(=O)n(-c4ccc(F)cc4)nc-3c2c1 [Compound 13f, N-Ethyl-2-(4-fluorophenyl)-3-oxo-2,3-dihydropyrazolo[3,4-d]pyrrolo[3,4-b]pyridine-7(5H)-carboxamide] | A (A indicates % inhibition >80%) | D (D indicates negative modulation >20%)
A (A indicates % inhibition >80%) | CCNC(=O)n1cc2[nH]cc3c(=O)n(-c4ccccc4)nc-3c2c1 [Compound 13b, N-Ethyl-3-oxo-2-phenyl-2,3-dihydropyrazolo[3,4-d]pyrrolo[3,4-b]pyridine-7(5H)-carboxamide] | A (A indicates % inhibition >80%) | D (D indicates negative modulation >20%)
A (A indicates % inhibition >80%) | CCNC(=O)n1cc2[nH]cc3c(=O)n(-c4ccc(F)cc4F)nc-3c2c1 [Compound 13g, 2-(2,4-Difluorophenyl)-N-ethyl-3-oxo-2,3-dihydropyrazolo[3,4-d]pyrrolo[3,4-b]pyridine-7(5H)-carboxamide] | B (B indicates % inhibition <80% and >20%) | D (D indicates negative modulation >20%)

More lines, now with the values behind:

Compound | % Inhibition at 10 μM [1] | % Inhibition at 0.1 μM [1] | EP Modulation (GABAA receptors)
CNC(=O)n1ncc2c3nn(-c4ccccc4)c(=O)c-3c[nH]c21 [Compound 6c, N-methyl-3-oxo-2-phenyl-2,3-dihydrodipyrazolo[3,4-b:3′,4′-d]pyridine-6(5H)-carboxamide] | A (A indicates % inhibition >80%) | B (B indicates % inhibition <80% and >20%) | D (D indicates negative modulation >20%)
CCNC(=S)n1ncc2c3nn(-c4ccccc4)c(=O)c-3c[nH]c21 [Compound 6ar, N-ethyl-3-oxo-2-phenyl-2,3-dihydrodipyrazolo[3,4-b:3′,4′-d]pyridine-6(5H)-carbothioamide] | A (A indicates % inhibition >80%) | – | E (E indicates negative modulation <20%)
CCCNC(=O)n1ncc2c3nn(-c4ccccc4)c(=O)c-3c[nH]c21 [Compound 6d, 3-oxo-2-phenyl-N-propyl-2,3-dihydrodipyrazolo[3,4-b:3′,4′-d]pyridine-6(5H)-carboxamide] | A (A indicates % inhibition >80%) | – | E (E indicates negative modulation <20%)
CCNC(=S)n1ncc2c3nn(-c4ccc(Cl)cc4)c(=O)c-3c[nH]c21 [Compound 6as, 2-(4-chlorophenyl)-N-ethyl-3-oxo-2,3-dihydrodipyrazolo[3,4-b:3′,4′-d]pyridine-6(5H)-carbothioamide] | A (A indicates % inhibition >80%) | – | D (D indicates negative modulation >20%)
CCNC(=O)n1ncc2c3nn(-c4ccc(Cl)cc4)c(=O)c-3c[nH]c21 [Compound 6o] | A (A indicates % inhibition >80%) | B (B indicates % inhibition <80% and >20%) | E (E indicates negative modulation <20%)
CCNC(=O)n1ncc2c3nn(-c4ccccn4)c(=O)c-3c[nH]c21 [Compound 6m, N-ethyl-3-oxo-2-(pyridin-2-yl)-2,3-dihydrodipyrazolo[3,4-b:3′,4′-d]pyridine-6(5H)-carboxamide] | A (A indicates % inhibition >80%) | C (C indicates % inhibition <20%) | D (D indicates negative modulation >20%)
CCNC(=O)n1ncc2c3nn(-c4ccc(Cl)cn4)c(=O)c-3c[nH]c21 [Compound 6ay, 2-(5-chloropyridin-2-yl)-N-ethyl-3-oxo-2,3-dihydrodipyrazolo[3,4-b:3′,4′-d]pyridine-6(5H)-carboxamide] | A (A indicates % inhibition >80%) | – | D (D indicates negative modulation >20%)
CCNC(=O)n1ncc2c3nn(-c4ccc(C(F)(F)F)cc4)c(=O)c-3c[nH]c21 [Compound 6ae, N-ethyl-3-oxo-2-(4-(trifluoromethyl)phenyl)-2,3-dihydrodipyrazolo[3,4-b:3′,4′-d]pyridine-6(5H)-carboxamide] | A (A indicates % inhibition >80%) | – | E (E indicates negative modulation <20%)
CCNC(=O)n1nc2[nH]cc3c(=O)n(-c4ccccc4)nc-3c2c1C [Compound 6av, N-ethyl-8-methyl-3-oxo-2-phenyl-2,3-dihydrodipyrazolo[3,4-b:3′,4′-d]pyridine-7(5H)-carboxamide] | A (A indicates % inhibition >80%) | B (B indicates % inhibition <80% and >20%) | E (E indicates negative modulation <20%)
CCNC(=O)n1ncc2c3nn(-c4ccc(C(C)C)cc4)c(=O)c-3c[nH]c21 [Compound 6z, N-ethyl-2-(4-isopropylphenyl)-3-oxo-2,3-dihydrodipyrazolo[3,4-b:3′,4′-d]pyridine-6(5H)-carboxamide. TFA] | A (A indicates % inhibition >80%) | – | E (E indicates negative modulation <20%)
